From ChEMBL document CHEMBL1129556, “Design, synthesis, and evaluation of latent alkylating agents activated by glutathione S-transferase” (J Med Chem, 1996)
pIC50: −log10 of the molar value.

Experiments:
[1] = species on record: Homo sapiens; experiment: Inhibitory activity (treatment time 120 min) against MCF-7 pi cell line; format: functional; conditions: MCF7, 2 h
[2] = species on record: Homo sapiens; experiment: Inhibitory activity (treatment time 120 min) against MCF-7 neo cell line; format: functional; conditions: MCF7, 2 h

**Q.** What does the source list for `NC(CCC(=O)NC(CS(=O)(=O)CCOP(=O)(N(CCBr)CCBr)N(CCBr)CCBr)C(=O)NC(C(=O)O)c1ccccc1)C(=O)O` (stereo not given)?
**A.** pIC50 [1]: 4.94; pIC50 [2]: 4.79

**Q.** What does the source list for `NC(CCC(=O)NC(CS(=O)(=O)C(COP(=O)(N(CCCl)CCCl)N(CCCl)CCCl)c1ccccc1)C(=O)NCC(=O)O)C(=O)O` (stereo not given)?
**A.** pIC50 [1]: 4.87; pIC50 [2]: 4.67

**Q.** How did the pIC50 [1] turn out when `CCOC(=O)CNC(=O)C(CS(=O)(=O)CCOC(=O)N(CCCl)CCCl)NC(=O)CCC(N)C(=O)OCC` (stereo not given) was run?
**A.** The pIC50 was 4.16.

**Q.** What about the pIC50 [2] of the same compound?
**A.** Its pIC50 is 3.99.

**Q.** `NC(CCC(=O)NC(CS(=O)(=O)CCOP(=O)(N(CCCl)CCCl)N(CCCl)CCCl)C(=O)NC(C(=O)O)c1ccccc1)C(=O)O` (stereo not given) was tested. Which pIC50 [1] did it give?
**A.** Its pIC50 is 4.84.

**Q.** And the pIC50 [2]?
**A.** The pIC50 was 4.40.

**Q.** With `NC(CCC(=O)NC(CS(=O)(=O)CCOC(=O)N(CCCl)CCCl)C(=O)NCC(=O)O)C(=O)O` (stereo not given) as the compound, how does the pIC50 [1] read?
**A.** The pIC50 was 4.07.

**Q.** And the pIC50 [2]?
**A.** The pIC50 was 3.88.
